According to patent publication US20250313533A1, “QUINOLINE CARBOXYLIC ACID ESTER COMPOUND AND PREPARATION METHOD AND USE THEREOF” (priority 2019, published 2025):
“And” between values parts separate entries of the source, which are not always exact repeats. Equal values may be shown once. Read-outs that look alike come from different tables or passages of the source.

Legend:
[1] = tested on: pathogenic bacteria causing fruit blotch in watermelons; test: In vitro bactericidal activity, fruit blotch in watermelons; assay type: cell-based, acidovorax
[2] = tested on: pathogenic bacteria causing black shank in potatoes; test: In vitro bactericidal activity, black shank in potatoes; assay type: cell-based
[3] = tested on: soft rot in wild cabbages; test: Field test for controlling soft rot in wild cabbages; assay type: in vivo, wild cabbage; settings: 7 days after the last application
Procedure: (§1) In October 2019, tests were carried out in fields of Chinese cabbage, wild cabbage and lettuce in Tai'an, Shandong. The doses of the compounds 152 and 282 of the present disclosure (both prepared as dispersible granules with a mass fraction of 10%) used were 16.87 ga.i./hm^2 and 33.75 ga.i./hm^2, and the control agents used were 3% (by weight) wettable powder of zhongshengmycin and 33.5% (by weight) aqueous suspension of oxine-copper (both were commercially available). The dose of zhongshengmycin was 67.5 ga.i./hm^2, and the dose of oxine-copper was 337.5 ga.i./hm^2. Test and control agents were arranged in randomized blocks. Plot area was 15 m^2. Treatment was repeated 3 times. The route of application was spraying on stem and leaves. The application was performed 2 times in total at an interval of 7 days, and the efficacy investigation was performed 7 days after the last application. During the investigation, sampling was carried out at 5 points in each plot. Disease conditions of soft rot in Chinese cabbages, soft rot in lettuces and soft rot in wild cabbages were recorded according to the relevant technical standard of Pesticide Guidelines for the Field Efficacy Trials GB/T17980.114-2004, and the incidence rate of plants was calculated to further evaluate the control effect.

[4] = tested on: soft rot in lettuces; test: Field test for controlling soft rot in lettuces; assay type: in vivo, lettuce; settings: 7 days after the last application
Procedure: as §1

[5] = tested on: pathogenic bacteria causing bacterial blight in rice; test: whole plant or invertebrate; assay type: cell-based, xanthomonas; settings: for inhibitory rate: in vitro
[6] = tested on: pathogenic bacteria causing bacterial wilt in cassava; test: organism not typed; assay type: cell-based; settings: for inhibitory rate: in vitro
[7] = tested on: stem rot in sweet potatoes
[8] = tested on: pathogenic bacteria causing bacterial angular leaf spot in cucumbers; test: In vitro bactericidal activity, bacterial angular leaf spot in cucumbers; assay type: cell-based, pseudomonas
[9] = tested on: pathogenic bacteria causing fire blight in pears; test: In vitro bactericidal activity, fire blight in pears; assay type: cell-based, erwinia
[10] = tested on: pathogenic bacteria causing stem rot in sweet potatoes; test: In vitro bactericidal activity, stem rot in sweet potatoes; assay type: cell-based, dikia
[11] = tested on: soft rot in Chinese cabbages
[12] = tested on: soft rot in Chinese cabbages; test: Field test for controlling soft rot in Chinese cabbages; assay type: in vivo, Chinese cabbage; settings: 7 days after the last application
Procedure: as §1

[13] = tested on: pathogenic bacteria causing bacterial wilt in tobacco; test: whole plant or invertebrate; assay type: cell-based, ralstonia; settings: for inhibitory rate: in vitro
[14] = tested on: pathogenic bacteria causing black rot in Chinese cabbages; test: In vitro bactericidal activity, black rot in Chinese cabbages; assay type: cell-based, xanthomonas
[15] = tested on: fruit blotch in watermelons
[16] = tested on: black shank in potatoes; test: Living crops in vivo protective activity, potatoes (root irrigation)
Procedure: Root irrigation was carried out on the potatoes for tests according to the designed concentration of the agents. The dosage for each plant was 200 mL and was kept consistent (also for the control). The black shank bacteria were inoculated on the second day after the application. The results were investigated according to the disease condition.

[17] = tested on: bacterial wilt in tobacco; settings: seed soaking
[18] = tested on: soft rot in Chinese cabbages; test: whole plant or invertebrate; settings: 48 h, read-out: efficacy against soft rot in Chinese cabbages
[19] = tested on: bacterial wilt in tobacco; test: whole plant or invertebrate; settings: Nicotiana tabacum, read-out: efficacy against bacterial wilt in tobacco
[20] = tested on: bacterial blight in rice; test: whole plant or invertebrate; settings: Oryza sativa, read-out: efficacy against bacterial blight in rice
[21] = tested on: indoor potted cucumber seedlings; test: Effect of improving growth and development of crops; assay type: in vivo; parameters: Rate of growth rate increase (%): concentration or dose not given beside the values; settings: versus blank control
In short: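 Readouts: rate of increase in height growth, leaf area and SPAD chlorophyll content. Measurements were made before compound application and again 14 days afterwards, with leaf area computed from second-leaf dimensions.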

[22] = tested on: fruit blotch in watermelons; test: whole plant or invertebrate; settings: read-out: efficacy against fruit blotch in watermelons
[23] = tested on: cucumber seedlings; test: Safety for plant growth after application; assay type: in vivo; settings: dosage 200 ppm
In short: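 Using pot-grown cucumber seedlings indoors, we recorded plant height growth rate together with chlorophyll content and leaf area following compound application.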

[24] = tested on: stem rot in sweet potatoes; test: whole plant or invertebrate; settings: read-out: efficacy against stem rot in sweet potatoes
[25] = dose 337.5 g a.i./hm^2, 2 sprays
[26] = dose 67.5 g a.i./hm^2, 2 sprays
[27] = dosage 1 ppm, read-out: inhibitory rate
[28] = dosage 5 ppm, read-out: inhibitory rate
[29] = dose 16.87 g a.i./hm^2, 2 sprays
[30] = dose 33.75 g a.i./hm^2, 2 sprays

With `[Cu+2].[O-]c1cccc2cccnc12.[O-]c1cccc2cccnc12` [oxine-copper, reference compound] the inhibitory rate ([1]; dosage 1 ppm) was 0%, the inhibitory rate ([1]; dosage 5 ppm) was 3% and the inhibitory rate ([2]; dosage 1 ppm) was 0%. The inhibitory rate ([2]; dosage 5 ppm) was 3%, the “Control effect (%)” value [3, 25] was 11% and the “Control effect (%)” value [4, 25] was 9%. For the same compound, the inhibitory rate ([5]; dosage 1 ppm) was 9%, the inhibitory rate ([5]; dosage 5 ppm) was 16% and the inhibitory rate ([6]; dosage 1 ppm) was 7%. The inhibitory rate ([6]; dosage 5 ppm) was 15%, the “efficacy against stem rot in sweet potatoes” value (from here on “efficacy against stem rot”) ([7]; in vivo) was 20% and 13% and the inhibitory rate ([8]; dosage 1 ppm) was 0%. The inhibitory rate ([8]; dosage 5 ppm) was 2%, the inhibitory rate ([9]; dosage 1 ppm) was 0% and the inhibitory rate ([9]; dosage 5 ppm) was 3%. The inhibitory rate ([10]; dosage 1 ppm) was 2%, the inhibitory rate ([10]; dosage 5 ppm) was 7% and the “efficacy against soft rot in Chinese cabbages” value (from here on “efficacy against soft rot”) ([11]; in vivo) was 16% and 6%. The “Control effect (%)” value [12, 25] was 13%, the inhibitory rate ([13]; dosage 1 ppm) was 0% and the inhibitory rate ([13]; dosage 5 ppm) was 5%. For the same compound, the inhibitory rate ([14]; dosage 1 ppm) was 0%, the inhibitory rate ([14]; dosage 5 ppm) was 5% and the “efficacy against fruit blotch in watermelons” value (from here on “efficacy against fruit blotch”) ([15]; in vivo) was 22% and 15%. The “efficacy against black shank in potatoes” value ([16]; dosage 5 ppm) was 11%, the “efficacy against black shank in potatoes” value ([16]; dosage 10 ppm) was 22% and the “efficacy against bacterial wilt in tobacco” value (“efficacy … in tobacco” below) ([17]; dosage 5 ppm) was 5%. For the same compound, the “efficacy … in tobacco” value ([17]; dosage 10 ppm) was 11%.
zhongshengmycin [reference compound] gave an inhibitory rate ([1]; dosage 1 ppm) of 29%, an inhibitory rate ([1]; dosage 5 ppm) of 52% and an inhibitory rate ([2]; dosage 1 ppm) of 38%. The inhibitory rate ([2]; dosage 5 ppm) was 55%, the “Control effect (%)” value [3, 26] was 69% and the “Control effect (%)” value [4, 26] was 65%. For the same compound, the inhibitory rate ([5]; dosage 1 ppm) was 30%, the inhibitory rate ([5]; dosage 5 ppm) was 48% and the inhibitory rate ([6]; dosage 1 ppm) was 32%. The inhibitory rate ([6]; dosage 5 ppm) was 51%, the “efficacy against stem rot” value ([7]; dosage 5 ppm, seed soaking) was 23% and the “efficacy against stem rot” value ([7]; dosage 10 ppm, seed soaking) was 38%. It also gave an inhibitory rate ([8]; dosage 1 ppm) of 21%, an inhibitory rate ([8]; dosage 5 ppm) of 48% and an inhibitory rate ([9]; dosage 1 ppm) of 23%. It also gave an inhibitory rate ([9]; dosage 5 ppm) of 43%, an inhibitory rate ([10]; dosage 1 ppm) of 25% and an inhibitory rate ([10]; dosage 5 ppm) of 46%. The “efficacy against soft rot” value ([11]; dosage 5 ppm, sprayed cut leaves, 48 h incubation) was 23%, the “efficacy against soft rot” value ([11]; dosage 10 ppm, sprayed cut leaves, 48 h incubation) was 39% and the “Control effect (%)” value [12, 26] was 72%. The inhibitory rate ([13]; dosage 1 ppm) was 28%, the inhibitory rate ([13]; dosage 5 ppm) was 51% and the inhibitory rate ([14]; dosage 1 ppm) was 19%. The inhibitory rate ([14]; dosage 5 ppm) was 46%, the “efficacy against fruit blotch” value ([15]; dosage 5 ppm, seed soaking) was 19% and the “efficacy against fruit blotch” value ([15]; dosage 10 ppm, seed soaking) was 33%. The “efficacy against black shank in potatoes” value ([16]; dosage 5 ppm) was 17%, the “efficacy against black shank in potatoes” value ([16]; dosage 10 ppm) was 25% and the “efficacy … in tobacco” value ([17]; dosage 5 ppm) was 24%. The “efficacy … in tobacco” value ([17]; dosage 10 ppm) was 35%.
Compound `COCCOC(=O)c1cn(C2CC2)c2cc(Cl)c(F)cc2c1=O` [Compound 152, 2-methoxyethyl 7-chloro-1-cyclopropyl-6-fluoro-4-oxo-1,4-dihydroquinoline-3-carboxylate] has an inhibition at 1 ppm [1, 27] of at least 90%, an inhibition at 5 ppm [1, 28] of at least 90% and an inhibition at 1 ppm [2, 27] of at least 90%. It also gave an inhibition at 5 ppm [2, 28] of at least 90%, a pest or weed control at 5 ppm [18] of at least 90% and a pest or weed control at 10 ppm [18] of at least 90%. For the same compound, the “Control effect (%)” value [3, 29] was 82%, the “Control effect (%)” value [3, 30] was 93% and the pest or weed control at 5 ppm [19] was at least 90%. For the same compound, the pest or weed control at 10 ppm [19] was at least 90%, the “Control effect (%)” value [4, 29] was 79% and the “Control effect (%)” value [4, 30] was 90%. It also gave an inhibition at 1 ppm ([5]; read-out: inhibitory rate) of at least 90%, an inhibition at 5 ppm ([5]; read-out: inhibitory rate) of at least 90% and a pest or weed control at 5 ppm [20] of at least 90%. It also gave a pest or weed control at 10 ppm [20] of at least 90%, an inhibition at 1 ppm ([6]; read-out: inhibitory rate) of at least 90% and an inhibition at 5 ppm ([6]; read-out: inhibitory rate) of at least 90%. The inhibition at 1 ppm [8, 27] was at least 90%, the inhibition at 5 ppm [8, 28] was at least 90% and the “Rate of chlorophyll content increase (%)” value ([21]; 14 days after application) was 17%. For the same compound, the “Rate of growth rate increase (%)” value ([21]; plant height 14 days after application) was 15%, the “Rate of leaf area increase (%)” value ([21]; second leaf, 14 days after application) was 16% and the pest or weed control at 5 ppm [22] was at least 90%. It also gave a pest or weed control at 10 ppm [22] of at least 90%, an inhibition at 1 ppm ([9]; Erwinia, dosage 1 ppm, read-out: inhibitory rate) of at least 90% and an inhibition at 5 ppm ([9]; Erwinia, dosage 5 ppm, read-out: inhibitory rate) of at least 90%. For the same compound, the inhibition at 1 ppm [10, 27] was at least 90%, the inhibition at 5 ppm [10, 28] was at least 90% and the “Control effect (%)” value [12, 29] was 86%. The “Control effect (%)” value [12, 30] was 96%, the “safety for plant growth (discoloration, necrosis, wilt, malformation)” value [23] was “safe for plant growth” and the inhibition at 1 ppm ([13]; read-out: inhibitory rate) was at least 90%. For the same compound, the inhibition at 5 ppm ([13]; read-out: inhibitory rate) was at least 90%, the pest or weed control at 5 ppm [24] was at least 90% and the pest or weed control at 10 ppm [24] was at least 90%. The inhibition at 1 ppm ([14]; Xanthomonas, dosage 1 ppm, read-out: inhibitory rate) was at least 90%, the inhibition at 5 ppm ([14]; Xanthomonas, dosage 5 ppm, read-out: inhibitory rate) was at least 90% and the pest or weed control at 5 ppm ([16]; Solanum tuberosum, dosage 5 ppm, read-out: efficacy against black shank in potatoes) was at least 90%. For the same compound, the pest or weed control at 10 ppm ([16]; Solanum tuberosum, dosage 10 ppm, read-out: efficacy against black shank in potatoes) was at least 90%.
